Test results from PubChem BioAssay (NCI).
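Where inhibition never reached the appropriate level, the endpoint shown equals the highest concentration tested. Otherwise, values were interpolated linearly from a five-concentration, 48-hour dose response in 96-well plates. At the TGI there is no net growth.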

Legend:
Test in all cases: inhibition of tumour cell growth, NCI panel, 48 h
786-0 renal = tested on: 786-0 renal
A498 renal = tested on: A498 renal
A549 NSCLC = tested on: A549 NSCLC
ACHN renal = tested on: ACHN renal
CAKI-1 renal = tested on: CAKI-1 renal
CCRF-CEM leukemia = tested on: CCRF-CEM leukemia
COLO 205 colon = tested on: COLO 205 colon
DLD-1 colon = tested on: DLD-1 colon
DMS 114 small cell lung = tested on: DMS 114 small cell lung
DMS 273 small cell lung = tested on: DMS 273 small cell lung
EKVX NSCLC = tested on: EKVX NSCLC
HCC-2998 colon = tested on: HCC-2998 colon
HCT-116 colon = tested on: HCT-116 colon
HCT-15 colon = tested on: HCT-15 colon
HL-60(TB) leukemia = tested on: HL-60(TB) leukemia
HOP-18 NSCLC = tested on: HOP-18 NSCLC
HOP-62 NSCLC = tested on: HOP-62 NSCLC
HOP-92 NSCLC = tested on: HOP-92 NSCLC
HT29 colon = tested on: HT29 colon
IGROV1 ovarian = tested on: IGROV1 ovarian
K-562 leukemia = tested on: K-562 leukemia
KM12 colon = tested on: KM12 colon
KM20L2 colon = tested on: KM20L2 colon
LOX IMVI melanoma = tested on: LOX IMVI melanoma
LXFL 529 NSCLC = tested on: LXFL 529 NSCLC
M14 melanoma = tested on: M14 melanoma
M19-MEL melanoma = tested on: M19-MEL melanoma
MALME-3M melanoma = tested on: MALME-3M melanoma
MOLT-4 leukemia = tested on: MOLT-4 leukemia
NCI-H226 lung = tested on: NCI-H226 lung
NCI-H23 lung = tested on: NCI-H23 lung
NCI-H460 lung = tested on: NCI-H460 lung
NCI-H522 lung = tested on: NCI-H522 lung
OVCAR-3 ovarian = tested on: OVCAR-3 ovarian
OVCAR-4 ovarian = tested on: OVCAR-4 ovarian
OVCAR-5 ovarian = tested on: OVCAR-5 ovarian
OVCAR-8 ovarian = tested on: OVCAR-8 ovarian
RPMI-8226 leukemia = tested on: RPMI-8226 leukemia
RXF 393 renal = tested on: RXF 393 renal
RXF-631 renal = tested on: RXF-631 renal
SF-268 CNS = tested on: SF-268 CNS
SF-295 CNS = tested on: SF-295 CNS
SF-539 CNS = tested on: SF-539 CNS
SK-MEL-2 melanoma = tested on: SK-MEL-2 melanoma
SK-MEL-28 melanoma = tested on: SK-MEL-28 melanoma
SK-MEL-5 melanoma = tested on: SK-MEL-5 melanoma
SK-OV-3 ovarian = tested on: SK-OV-3 ovarian
SN12C renal = tested on: SN12C renal
SNB-19 CNS = tested on: SNB-19 CNS
SNB-75 CNS = tested on: SNB-75 CNS
SNB-78 CNS = tested on: SNB-78 CNS
SR leukemia = tested on: SR leukemia
SW-620 colon = tested on: SW-620 colon
TK-10 renal = tested on: TK-10 renal
U251 CNS = tested on: U251 CNS
UACC-257 melanoma = tested on: UACC-257 melanoma
UACC-62 melanoma = tested on: UACC-62 melanoma
UO-31 renal = tested on: UO-31 renal
XF 498 CNS = tested on: XF 498 CNS

O=c1[nH]c2nc3ccccc3n2c(O)c1-c1ccccc1 was tested, and the TGI (786-0 renal) was greater than 100 µM, the TGI (A498 renal) was greater than 100 µM and the TGI (A549 NSCLC) was greater than 100 µM. It also gave a TGI (ACHN renal) greater than 100 µM, a TGI (CAKI-1 renal) greater than 100 µM and a TGI (CCRF-CEM leukemia) greater than 100 µM. The TGI (COLO 205 colon) was greater than 100 µM, the TGI (DLD-1 colon) was greater than 100 µM and the TGI (DMS 114 small cell lung) was greater than 100 µM. For the same molecule, the TGI (DMS 273 small cell lung) was greater than 100 µM, the TGI (EKVX NSCLC) was greater than 100 µM and the TGI (HCC-2998 colon) was greater than 100 µM. The TGI (HCT-116 colon) was greater than 100 µM, the TGI (HCT-15 colon) was greater than 100 µM and the TGI (HL-60(TB) leukemia) was greater than 100 µM. The TGI (HOP-18 NSCLC) was greater than 100 µM, the TGI (HOP-62 NSCLC) was greater than 100 µM and the TGI (HOP-92 NSCLC) was greater than 100 µM. It also gave a TGI (HT29 colon) greater than 100 µM, a TGI (IGROV1 ovarian) greater than 100 µM and a TGI (K-562 leukemia) greater than 100 µM. The TGI (KM12 colon) was greater than 100 µM, the TGI (KM20L2 colon) was greater than 100 µM and the TGI (LOX IMVI melanoma) was greater than 100 µM. For the same molecule, the TGI (LXFL 529 NSCLC) was greater than 100 µM, the TGI (M14 melanoma) was greater than 100 µM and the TGI (M19-MEL melanoma) was greater than 100 µM. The TGI (MALME-3M melanoma) was greater than 100 µM, the TGI (MOLT-4 leukemia) was greater than 100 µM and the TGI (NCI-H226 lung) was greater than 100 µM. It also gave a TGI (NCI-H23 lung) greater than 100 µM, a TGI (NCI-H460 lung) greater than 100 µM and a TGI (NCI-H522 lung) greater than 100 µM. The TGI (OVCAR-3 ovarian) was greater than 100 µM, the TGI (OVCAR-4 ovarian) was greater than 100 µM and the TGI (OVCAR-5 ovarian) was greater than 100 µM. The TGI (OVCAR-8 ovarian) was greater than 100 µM, the TGI (RPMI-8226 leukemia) was greater than 100 µM and the TGI (RXF 393 renal) was greater than 100 µM. It also gave a TGI (RXF-631 renal) greater than 100 µM, a TGI (SF-268 CNS) greater than 100 µM and a TGI (SF-295 CNS) greater than 100 µM. The TGI (SF-539 CNS) was greater than 100 µM, the TGI (SK-MEL-2 melanoma) was greater than 100 µM and the TGI (SK-MEL-28 melanoma) was greater than 100 µM. For the same molecule, the TGI (SK-MEL-5 melanoma) was greater than 100 µM, the TGI (SK-OV-3 ovarian) was greater than 100 µM and the TGI (SN12C renal) was greater than 100 µM. It also gave a TGI (SNB-19 CNS) greater than 100 µM, a TGI (SNB-75 CNS) greater than 100 µM and a TGI (SNB-78 CNS) greater than 100 µM. The TGI (SR leukemia) was greater than 100 µM, the TGI (SW-620 colon) was greater than 100 µM and the TGI (TK-10 renal) was greater than 100 µM. For the same molecule, the TGI (U251 CNS) was greater than 100 µM, the TGI (UACC-257 melanoma) was greater than 100 µM and the TGI (UACC-62 melanoma) was greater than 100 µM. The TGI (UO-31 renal) was greater than 100 µM and the TGI (XF 498 CNS) was greater than 100 µM.

Work on CCCCCCCCCCCCCCCCCC(=O)NCC(COP(=O)([O-])OCC[N+](C)(C)C)OC (stereo not drawn) yielded a TGI (786-0 renal) of 3.07 µM, a TGI (A498 renal) of 10.3 µM and a TGI (A549 NSCLC) of 22.4 µM. It also gave a TGI (ACHN renal) of 22.7 µM, a TGI (CAKI-1 renal) of 8.14 µM and a TGI (CCRF-CEM leukemia) of 5.66 µM. For the same molecule, the TGI (COLO 205 colon) was 3.24 µM, the TGI (DLD-1 colon) was 8.17 µM and the TGI (DMS 114 small cell lung) was 22.7 µM. It also gave a TGI (DMS 273 small cell lung) of 2.93 µM, a TGI (EKVX NSCLC) of 31.1 µM and a TGI (HCC-2998 colon) of 2.31 µM. For the same molecule, the TGI (HCT-116 colon) was 18.5 µM, the TGI (HCT-15 colon) was 5.89 µM and the TGI (HL-60(TB) leukemia) was 2.9 µM. For the same molecule, the TGI (HOP-18 NSCLC) was 6.92 µM, the TGI (HOP-62 NSCLC) was 8.21 µM and the TGI (HOP-92 NSCLC) was 8.17 µM. It also gave a TGI (HT29 colon) of 12.9 µM, a TGI (IGROV1 ovarian) of 4.72 µM and a TGI (KM12 colon) of 2.09 µM. It also gave a TGI (KM20L2 colon) of 5.5 µM, a TGI (LOX IMVI melanoma) of 23.3 µM and a TGI (LXFL 529 NSCLC) of 19.7 µM. It also gave a TGI (M14 melanoma) of 25.5 µM, a TGI (M19-MEL melanoma) of 6.28 µM and a TGI (MALME-3M melanoma) of 20.9 µM. For the same molecule, the TGI (MOLT-4 leukemia) was 3.56 µM, the TGI (NCI-H226 lung) was 8.69 µM and the TGI (NCI-H23 lung) was 28.7 µM. The TGI (NCI-H460 lung) was 2.59 µM, the TGI (OVCAR-3 ovarian) was 10.2 µM and the TGI (OVCAR-4 ovarian) was 13 µM. The TGI (OVCAR-5 ovarian) was 14.4 µM, the TGI (OVCAR-8 ovarian) was 23.6 µM and the TGI (RPMI-8226 leukemia) was 4.67 µM. The TGI (RXF 393 renal) was 2.1 µM, the TGI (RXF-631 renal) was 26.8 µM and the TGI (SF-268 CNS) was 17.5 µM. It also gave a TGI (SF-295 CNS) of 13 µM, a TGI (SF-539 CNS) of 31.8 µM and a TGI (SK-MEL-28 melanoma) of 30.6 µM. For the same molecule, the TGI (SK-MEL-5 melanoma) was 29.5 µM, the TGI (SK-OV-3 ovarian) was 28.7 µM and the TGI (SN12C renal) was 15.3 µM. The TGI (SNB-19 CNS) was 3.48 µM, the TGI (SNB-75 CNS) was 15.8 µM and the TGI (SNB-78 CNS) was 13.6 µM. It also gave a TGI (SR leukemia) of 7.36 µM, a TGI (SW-620 colon) of 22.9 µM and a TGI (TK-10 renal) of 3.02 µM. The TGI (U251 CNS) was 4.04 µM, the TGI (UACC-257 melanoma) was 30.2 µM and the TGI (UACC-62 melanoma) was 16.9 µM. For the same molecule, the TGI (UO-31 renal) was 30.7 µM and the TGI (XF 498 CNS) was 8.58 µM.

Work on CCOC(=O)C1C(=O)CN2CCc3c([nH]c4ccccc34)C12C(=O)OCC (stereo not drawn) yielded a TGI (786-0 renal) greater than 100 µM, a TGI (A498 renal) greater than 100 µM and a TGI (A549 NSCLC) greater than 100 µM. The TGI (ACHN renal) was greater than 100 µM, the TGI (CAKI-1 renal) was greater than 100 µM and the TGI (CCRF-CEM leukemia) was greater than 100 µM. The TGI (COLO 205 colon) was greater than 100 µM, the TGI (DLD-1 colon) was greater than 100 µM and the TGI (DMS 114 small cell lung) was greater than 100 µM. The TGI (DMS 273 small cell lung) was greater than 100 µM, the TGI (EKVX NSCLC) was greater than 100 µM and the TGI (HCC-2998 colon) was greater than 100 µM. The TGI (HCT-116 colon) was greater than 100 µM, the TGI (HCT-15 colon) was greater than 100 µM and the TGI (HL-60(TB) leukemia) was greater than 100 µM. For the same molecule, the TGI (HOP-18 NSCLC) was greater than 100 µM, the TGI (HOP-62 NSCLC) was greater than 100 µM and the TGI (HOP-92 NSCLC) was greater than 100 µM. For the same molecule, the TGI (HT29 colon) was greater than 100 µM, the TGI (IGROV1 ovarian) was greater than 100 µM and the TGI (K-562 leukemia) was greater than 100 µM. It also gave a TGI (KM12 colon) greater than 100 µM, a TGI (KM20L2 colon) greater than 100 µM and a TGI (LOX IMVI melanoma) greater than 100 µM. It also gave a TGI (LXFL 529 NSCLC) greater than 100 µM, a TGI (M14 melanoma) greater than 100 µM and a TGI (M19-MEL melanoma) greater than 100 µM. For the same molecule, the TGI (MALME-3M melanoma) was greater than 100 µM, the TGI (MOLT-4 leukemia) was greater than 100 µM and the TGI (NCI-H226 lung) was greater than 100 µM. It also gave a TGI (NCI-H23 lung) greater than 100 µM, a TGI (NCI-H460 lung) greater than 100 µM and a TGI (NCI-H522 lung) greater than 100 µM. The TGI (OVCAR-3 ovarian) was greater than 100 µM, the TGI (OVCAR-4 ovarian) was greater than 100 µM and the TGI (OVCAR-5 ovarian) was greater than 100 µM. The TGI (OVCAR-8 ovarian) was greater than 100 µM, the TGI (RXF 393 renal) was greater than 100 µM and the TGI (RXF-631 renal) was greater than 100 µM. For the same molecule, the TGI (SF-268 CNS) was greater than 100 µM, the TGI (SF-295 CNS) was greater than 100 µM and the TGI (SF-539 CNS) was greater than 100 µM. It also gave a TGI (SK-MEL-2 melanoma) greater than 100 µM, a TGI (SK-MEL-28 melanoma) greater than 100 µM and a TGI (SK-MEL-5 melanoma) greater than 100 µM. For the same molecule, the TGI (SK-OV-3 ovarian) was greater than 100 µM, the TGI (SN12C renal) was greater than 100 µM and the TGI (SNB-19 CNS) was greater than 100 µM. The TGI (SNB-75 CNS) was greater than 100 µM, the TGI (SNB-78 CNS) was greater than 100 µM and the TGI (SR leukemia) was greater than 100 µM. For the same molecule, the TGI (SW-620 colon) was greater than 100 µM, the TGI (TK-10 renal) was greater than 100 µM and the TGI (U251 CNS) was greater than 100 µM. The TGI (UACC-257 melanoma) was greater than 100 µM, the TGI (UACC-62 melanoma) was greater than 100 µM and the TGI (UO-31 renal) was greater than 100 µM. It also gave a TGI (XF 498 CNS) greater than 100 µM.
